# Laboratory results reported in patent US20200157048A1, “(2E,4E)-5-PHENYL-PENTA-2,4-DIEN-1-ONE DERIVATIVE” (BIOWAY., INC, priority 2018, published 2020).
# Assays:
# [1] = test system: 3T3-L1 preadipocytes; experiment: Oil-Red-O staining of lipid droplets after induction of 3T3-L1 preadipocyte differentiation; format: cell-based, mouse; conditions: 50 μM test material; differentiated 3T3-L1 cells
# Description: (§1) 3T3-L1 mouse preadipocytes (American Type Culture Collection) were incubated in an incubator set to 37° C., humidity of 95% and 5% CO2. The 3T3-L1 mouse preadipocytes were sufficiently proliferated using a proliferation medium (Dulbecco's modified Eagle's medium (DMEM) supplemented with 5% fetal bovine serum (FBS), 100 U/mL of penicillin and 100 μg/mL of streptomycin), and treated with a differentiation medium (DMEM containing 5% FBS, 0.5 mM 3-isobutyl-1-methylxanthine, […] dexamethasone and 10 μg/mL insulin) for 4 days. Afterward, the 3T3-L1 mouse preadipocytes were treated with an induction medium (DMEM containing 5% FBS and 10 μg/mL insulin, DMEM containing 5% FBS) for 2 days, and to maintain differentiated adipocytes until the end of the experiment, the induction medium was replaced every day. The 3T3-L1 cells were used in Experimental Examples 1, 2, and 3.
# To confirm capacity of inhibiting the formation of lipid droplets of a test material, 3T3-L1 cells, which are preadipocytes, were induced to differentiate into adipocytes, and then the lipid droplets were stained through the Oil-Red-O staining.
# First, after preadipocytes, 3T3-L1 cells, were incubated in a dish having a diameter of 10 cm^2, excluding G1 and G2, the cells were treated with 50 μM of a test material previously diluted with a culture medium (refer to Table 2).
# Next, for staining, first, the cell supernatant present in a well was removed, and fixed with 4% paraformaldehyde. Afterward, after adding a 100% 1,2-propanediol dehydration solution, the resulting sample was incubated for 5 minutes, and then an Oil-Red-O stain solution was added for staining of lipid droplets. After the Oil-Red-O staining, an 85% 1,2-propanediol stain differential solution was added for washing.
# Finally, after filling a well with D.W. without drying the stained well, the formation of lipid droplets was confirmed by observation using a microscope.
# After confirming the formation of lipid droplets using Oil-Red-O staining, a part stained with isopropanol was dissolved, and the degree of staining lipid droplets was confirmed by absorbance at 540 nm. The increase/decrease rate, compared to the normal control, was evaluated using an optical density (OD) value.
# [2] = test system: 3T3-L1 preadipocytes; experiment: Triglyceride content after induction of 3T3-L1 preadipocyte differentiation; format: cell-based, mouse; conditions: differentiated 3T3-L1 cells; predetermined concentration of test material
# Description: as §1
# (§2) Preadipocytes, 3T3-L1 cells, were incubated in a dish having a diameter of 10 cm^2 by the same method as described in Experimental Example 1, and then treated with a predetermined concentration of a test material diluted with a culture medium. After treatment, a triglyceride content was confirmed using an assay kit.
# [3] = test system: 3T3-L1 preadipocytes; experiment: Glycerol content after induction of 3T3-L1 preadipocyte differentiation; format: cell-based, mouse; conditions: differentiated 3T3-L1 cells; predetermined concentration of test material
# Description: as §1
# as §2, with “glycerol” for “triglyceride”
# [4] = biological target: T1, SIRT1 (Homo sapiens, UniProt Q96EB6); experiment: SIRT1 direct fluorescent assay; format: biochemical
# T1 construct: purchased Cayman (Ann Arbor, Mich., USA)
# T1 sequence (Q96EB6 1-747): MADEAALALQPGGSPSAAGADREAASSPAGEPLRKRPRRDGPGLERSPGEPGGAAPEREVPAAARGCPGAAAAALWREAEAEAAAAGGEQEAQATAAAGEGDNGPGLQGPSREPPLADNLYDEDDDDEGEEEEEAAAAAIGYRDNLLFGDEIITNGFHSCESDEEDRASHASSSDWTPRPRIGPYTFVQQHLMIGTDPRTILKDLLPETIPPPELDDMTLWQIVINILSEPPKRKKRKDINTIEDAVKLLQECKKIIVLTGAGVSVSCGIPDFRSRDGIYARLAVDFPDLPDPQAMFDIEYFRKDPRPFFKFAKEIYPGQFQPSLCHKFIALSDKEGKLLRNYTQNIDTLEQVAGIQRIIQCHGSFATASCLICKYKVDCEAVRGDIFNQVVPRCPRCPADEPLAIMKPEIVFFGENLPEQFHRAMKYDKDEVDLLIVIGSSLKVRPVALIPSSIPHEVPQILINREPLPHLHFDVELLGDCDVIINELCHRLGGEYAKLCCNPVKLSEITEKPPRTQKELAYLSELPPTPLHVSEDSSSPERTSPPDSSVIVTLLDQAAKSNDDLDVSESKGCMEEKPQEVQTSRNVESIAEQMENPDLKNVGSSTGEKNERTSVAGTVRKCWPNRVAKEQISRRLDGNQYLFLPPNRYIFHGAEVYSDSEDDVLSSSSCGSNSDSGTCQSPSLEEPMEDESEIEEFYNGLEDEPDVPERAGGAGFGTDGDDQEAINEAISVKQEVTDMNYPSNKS
# Description: All materials were provided from a Sirt1 direct fluorescent screening assay kit (Cayman, Ann Arbor, Mich., USA).
# SIRT1, p53 conjugated aminomethyl coumarin (AMC) protein, and 3 mM NAD^+ were added to a diluted analysis buffer (50 mM Tris-HCl, pH 8.0, 137 mM NaCl, 2.7 mM KCl, and 1 mM MgCl2).
# 25 μL of the analysis buffer, 5 μL of diluted SIRT1, and 5 μL of a solvent were added to each of three 100% initial activity wells of a 96-well plate.
# 30 μL of the analysis buffer and 5 μL of a solvent were added to each of three background wells of the 96-well plate.
# 25 μL of the analysis buffer, 5 μL of diluted SIRT1, and 5 μL of a diluted test compound were added to each of three sample wells of the 96-well plate. The final DMSO concentration was less than 2%.
# 15 μL of a 3 mM NAD^+-containing substrate solution was added to all wells to begin the reaction. The 96-well plate was covered with a plate cover, and then incubated in a shaker at room temperature (25 to 30° C.) for 45 minutes.
# A stop/developing solution was prepared. To prepare the final 5 mL solution, 200 μL of nicotinamide (NAM, Sigma-Aldrich) was added to a color developing powder weighing 30 mg, 4.8 mL of a diluted analysis buffer was added thereto, and the resulting mixture was stirred until the powder became a solution.
# The plate cover was removed, and 50 μL of the stop/developing solution was added to each well.
# The 96-well plate was covered with a plate cover, and incubated at room temperature (25 to 30° C.) for 30 minutes.
# The plate cover was removed, and the plate was read using Cytation 5 at an excitation wavelength of 360 nm and an emission wavelength of 450 nm.
# The mean fluorescence of each sample was measured.
# The fluorescence of the background wells was subtracted from the fluorescence of the 100% initial activity wells and sample wells.
# To determine the percent of each sample, each sample value was subtracted from the 100% initial activity value, and the resulting value was divided by the 100% initial activity value and then multiplied by 100 and added to 100, which was expressed as a percentage.
increase of SIRT1 activity (FIG. 18) ([4]; 2 μM),increase of SIRT1 activity (FIG. 18) ([4]; 10 μM) [%],Compound,"amount of stained lipid droplets (Oil-Red-O dissolved in isopropanol, absorbance at 540 nm, FIG. 2) [1]",triglyceride content (FIG. 3) [2],glycerol content (FIG. 4) [3]
–,–,"COc1ccc(/C=C/C=C/C(=O)N2CCN(C)CC2)cc1 [R-15, (2E,4E)-5-(4-methoxyphenyl)-1-(4-methylpiperazine-1-yl)penta-2,4-dien-1-one]",less than that of the test groups treated with R-3 and 4,lower than that of the test group treated with R-3,lower than that of the test group treated with R-3
–,–,"CSc1ccc(/C=C/C=C/C(=O)N2CCOCC2)cc1 [R-30, (2E,4E)-5-(4-(methylthio)phenyl)-1-morpholinopenta-2,4-dien-1-one]",less than that of the test groups treated with R-3 and 4,lower than that of the test group treated with R-3,lower than that of the test group treated with R-3
–,–,"COc1ccc(/C=C/C=C/C(=O)N2CCOCC2)cc1 [R-29, (2E,4E)-5-(4-methoxyphenyl)-1-morpholinopenta-2,4-dien-1-one]",less than that of the test groups treated with R-3 and 4,lower than that of the test group treated with R-3,lower than that of the test group treated with R-3
–,–,"CSc1ccc(/C=C/C=C/C(=O)N2CCN(C(C)=O)CC2)cc1 [R-17, (2E,4E)-1-(4-acetylpiperazine-1-yl)-5-(4-(methylthio)phenyl)penta-2,4-dien-1-one]",less than that of the test groups treated with R-3 and 4,lower than that of the test group treated with R-3,lower than that of the test group treated with R-3
–,–,"CSc1ccc(/C=C/C=C/C(=O)N2CCCC(O)C2)cc1 (centres unmarked) [R-7, (2E,4E)-1-(3-hydroxypiperidine-1-yl)-5-(4-(methylthio)phenyl)penta-2,4-dien-1-one]",less than that of the test groups treated with R-3 and 4,lower than that of the test group treated with R-3,lower than that of the test group treated with R-3
–,–,"COC1CCN(C(=O)/C=C/C=C/c2ccc(SC)cc2)CC1 [R-9, (2E,4E)-1-(4-methoxypiperidine-1-yl)-5-(4-(methylthio)phenyl)penta-2,4-dien-1-one]",less than that of the test groups treated with R-3 and 4,lower than that of the test group treated with R-3,lower than that of the test group treated with R-3
–,–,"CSc1ccc(/C=C/C=C/C(=O)N2CCN(C(=O)OC(C)(C)C)CC2)cc1 [R-28, Tert-butyl 4-((2E,4E)-5-(4-(methylthio)phenyl)penta-2,4-dienoyl)piperazine-1-carboxylate]",less than that of the test groups treated with R-3 and 4,lower than that of the test group treated with R-3,lower than that of the test group treated with R-3
–,–,"CSc1ccc(/C=C/C=C/C(=O)N2CCC(NC(C)=O)CC2)cc1 [R-11, N-(1-((2E,4E)-5-(4-(methylthio)phenyl)penta-2,4-dienoyl)piperidine-4-yl)acetamide]",less than that of the test groups treated with R-3 and 4,lower than that of the test group treated with R-3,lower than that of the test group treated with R-3
about 5%,–,"CCOC(=O)N1CCN(C(=O)/C=C/C=C/c2cccc(OC)c2)CC1 [R-22, Ethyl ((2E,4E)-5-(3-methoxyphenyl)penta-2,4-dienoyl)piperazine-1-carboxylate]",–,–,–
–,≥ 10,"COc1ccc(/C=C/C=C/C(=O)N2CCN(C(=O)OC(C)C)CC2)cc1 [R-26, Isopropyl 4-((2E,4E)-5-(4-methoxyphenyl)penta-2,4-dienoyl)piperazine-1-carboxylate]",–,–,–
–,–,"CSc1ccc(/C=C/C=C/C(=O)N2CCC(O)CC2)cc1 [R-8, (2E,4E)-1-(4-hydroxypiperidine-1-yl)-5-(4-(methylthio)phenyl)penta-2,4-dien-1-one]",less than that of the test groups treated with R-3 and 4,lower than that of the test group treated with R-3,lower than that of the test group treated with R-3
